“And” between values parts separate entries of the source, which are not always exact repeats. Equal entries are not always repeated.
Key:
Set-up in all cases: species or system Hepacivirus hominis
NS3 [1] = biological target: T1, NS3 (Hepatitis C virus, UniProt A3EZJ3); test: Inhibitory concentration against hepatitis C virus (HCV) NS3 protease
NS3 [2] = biological target: T1, NS3; test: Inhibitory concentration against hepatitis C virus (HCV) NS3 protease; Not active
NS3 [3] = biological target: T1, NS3; test: Inhibitory concentration against hepatitis C virus (HCV) NS3 protease; Not active at >> 100 uM

T1 sequence (A3EZJ3 whole entry): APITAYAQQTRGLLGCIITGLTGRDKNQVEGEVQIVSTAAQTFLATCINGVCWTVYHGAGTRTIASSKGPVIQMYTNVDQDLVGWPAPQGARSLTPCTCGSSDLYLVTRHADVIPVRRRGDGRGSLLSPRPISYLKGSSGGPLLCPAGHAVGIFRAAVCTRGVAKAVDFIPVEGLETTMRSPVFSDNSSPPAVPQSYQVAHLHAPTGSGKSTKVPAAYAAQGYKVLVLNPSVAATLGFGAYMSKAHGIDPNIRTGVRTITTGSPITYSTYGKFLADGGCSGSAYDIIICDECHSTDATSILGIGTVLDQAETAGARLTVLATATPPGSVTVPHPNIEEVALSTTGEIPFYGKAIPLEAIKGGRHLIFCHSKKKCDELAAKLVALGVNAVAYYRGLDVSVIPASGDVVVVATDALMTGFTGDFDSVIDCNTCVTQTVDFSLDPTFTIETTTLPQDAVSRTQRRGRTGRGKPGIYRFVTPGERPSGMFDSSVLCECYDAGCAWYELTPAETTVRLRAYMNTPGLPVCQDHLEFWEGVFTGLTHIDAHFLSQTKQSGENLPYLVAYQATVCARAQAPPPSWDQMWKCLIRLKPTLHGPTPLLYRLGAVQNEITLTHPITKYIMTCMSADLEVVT

IC50 (NS3 [1])	SMILES	other results
54 nM	COc1ccc2c(O[C@@H]3C[C@@H](C(=O)NC(CC(F)F)C(=O)NCCc4c(F)cc(C(=O)O)cc4F)N(C(=O)[C@@H](NC(=O)OC(C)(C)C)C(C)(C)C)C3)cc(-c3ccccc3)nc2c1 (stereo not given in full)	
	C=CC1CC1(NC(=O)C1C[C@@H](Oc2ccnc3ccccc23)CN1C(=O)[C@@H](NC(=O)OC(C)(C)C)C(C)(C)C)C(=O)NCCc1ccc(C(=O)O)cc1 (stereo not given in full)	IC50 (NS3 [2]): Not Active
25 nM	C=CC1C[C@]1(NC(=O)C1C[C@@H](Oc2cc(-c3ccccc3)nc3cc(OC)ccc23)CN1C(=O)[C@@H](NC(=O)OC(C)(C)C)C(C)(C)C)C(=O)O (stereo not given in full)	
38000 nM	COc1ccc2c(O[C@@H]3C[C@@H](C(=O)NC(CC(F)F)C(=O)NCCc4c(F)cc(C(=O)O)cc4F)N(C(C)=O)C3)cc(-c3ccccc3)nc2c1 (stereo not given in full)	
	COc1ccc2c(O[C@@H]3C[C@@H](C(=O)NC(CC(F)F)C(=O)NCCc4ccc(C(=O)O)cc4)N(C(=O)C(C)(C)C)C3)cc(-c3ccccc3)nc2c1 (stereo not given in full)	IC50 (NS3 [3]): Not Active
330 nM and < 500 nM	C=CC1C[C@]1(NC(=O)C1C[C@@H](Oc2ccnc3ccccc23)CN1C(=O)[C@@H](NC(=O)OC(C)(C)C)C(C)(C)C)C(=O)O (stereo not given in full)	
11000 nM	COc1ccc2c(O[C@@H]3C[C@@H](C(=O)NC(CC(F)F)C(=O)NCCc4ccc(C(=O)O)cc4)N(C(=O)[C@@H](O)C(C)C)C3)cc(-c3ccccc3)nc2c1 (stereo not given in full)	
180 nM	COc1ccc2c(O[C@@H]3CC(C(=O)NC(CC(F)F)C(=O)O)N(C(=O)[C@@H](NC(=O)OC(C)(C)C)C(C)(C)C)C3)cc(-c3ccccc3)nc2c1 (stereo not given in full)	
400 nM	COc1ccc2c(O[C@@H]3C[C@@H](C(=O)NC(CC(F)F)C(=O)NCCc4ccc(C(=O)O)cc4)N(C(=O)[C@@H](NC(=O)OCC(C)C)C(C)C)C3)cc(-c3ccccc3)nc2c1 (stereo not given in full)	
	C=CC1C[C@@]1(NC(=O)C1C[C@@H](Oc2ccnc3ccccc23)CN1C(=O)[C@@H](NC(=O)OC(C)(C)C)C(C)(C)C)C(=O)O (stereo not given in full)	IC50 (NS3 [2]): Not Active
